According to ChEMBL document CHEMBL4627308, “Identification of C10 nitrogen-containing aporphines with dopamine D1 versus D5 receptor selectivity” (Bioorg Med Chem Lett, 2020):

Columns and labels:
[1] = target: T1, 5-hydroxytryptamine receptor 1A (Homo sapiens, UniProt P08908); test: Binding affinity to human 5HT1A receptor
T1 sequence (P08908 whole entry): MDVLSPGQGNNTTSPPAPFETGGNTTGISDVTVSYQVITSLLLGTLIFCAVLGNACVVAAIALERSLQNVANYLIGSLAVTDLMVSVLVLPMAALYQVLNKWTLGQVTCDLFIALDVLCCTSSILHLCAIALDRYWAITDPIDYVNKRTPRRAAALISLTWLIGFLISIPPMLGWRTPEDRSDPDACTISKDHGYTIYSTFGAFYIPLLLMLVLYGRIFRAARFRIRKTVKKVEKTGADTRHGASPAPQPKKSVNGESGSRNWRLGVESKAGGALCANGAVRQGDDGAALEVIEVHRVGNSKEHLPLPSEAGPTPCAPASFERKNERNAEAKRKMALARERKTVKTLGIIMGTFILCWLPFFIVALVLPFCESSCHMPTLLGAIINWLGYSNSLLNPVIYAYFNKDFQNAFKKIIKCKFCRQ

[2] = target: T2, 5-hydroxytryptamine receptor 2A (Homo sapiens, UniProt P28223)
Description: Binding affinity to human 5HT2A receptor

D(1A) dopamine receptor [3] = target: T3, D(1A) dopamine receptor (Homo sapiens, UniProt P21728); test: Binding affinity to human D1 receptor
D(2) dopamine receptor [4] = target: T4, D(2) dopamine receptor (Homo sapiens, UniProt P14416); test: Binding affinity to human D2 receptor
[5] = target: D(1B) dopamine receptor (Homo sapiens) (UniProt P21918); test: Inhibition of human D5 receptor relative to control; parameters: concentration or dose not given beside the values; settings: concentration not given here
[6] = target: T5, 5-hydroxytryptamine receptor 1A (Homo sapiens) (UniProt P08908); test: Inhibition of human 5HT1A receptor relative to control; parameters: concentration or dose not given beside the values; settings: concentration not given here
T5 sequence (whole entry): T1 sequence (P08908 whole entry)

[7] = target: T2, 5-hydroxytryptamine receptor 2A; test: Inhibition of human 5HT2A receptor relative to control; parameters: concentration or dose not given beside the values; settings: concentration not given here
D(1A) dopamine receptor [8] = target: T3, D(1A) dopamine receptor; test: Inhibition of human D1 receptor relative to control; parameters: concentration or dose not given beside the values; settings: concentration not given here
D(2) dopamine receptor [9] = target: T4, D(2) dopamine receptor; test: Inhibition of human D2 receptor relative to control; parameters: concentration or dose not given beside the values; settings: concentration not given here
[10] = Microsomal stability in human liver microsomes assessed as parent compound remaining measured immediately; assay type: ADME, Microsome
[11] = Microsomal stability in human liver microsomes assessed as parent compound remaining measured after 15 mins; assay type: ADME, Microsome; settings: 0.25 h
[12] = Microsomal stability in human liver microsomes assessed as parent compound remaining measured after 30 mins; assay type: ADME, Microsome; settings: 0.5 h
[13] = Microsomal stability in human liver microsomes assessed as parent compound remaining measured after 60 mins; assay type: ADME, Microsome; settings: 1 h
[14] = Microsomal stability in human liver microsomes assessed as parent compound remaining measured after 120 mins; assay type: ADME, Microsome; settings: 2 h

T3 sequence (P21728 whole entry): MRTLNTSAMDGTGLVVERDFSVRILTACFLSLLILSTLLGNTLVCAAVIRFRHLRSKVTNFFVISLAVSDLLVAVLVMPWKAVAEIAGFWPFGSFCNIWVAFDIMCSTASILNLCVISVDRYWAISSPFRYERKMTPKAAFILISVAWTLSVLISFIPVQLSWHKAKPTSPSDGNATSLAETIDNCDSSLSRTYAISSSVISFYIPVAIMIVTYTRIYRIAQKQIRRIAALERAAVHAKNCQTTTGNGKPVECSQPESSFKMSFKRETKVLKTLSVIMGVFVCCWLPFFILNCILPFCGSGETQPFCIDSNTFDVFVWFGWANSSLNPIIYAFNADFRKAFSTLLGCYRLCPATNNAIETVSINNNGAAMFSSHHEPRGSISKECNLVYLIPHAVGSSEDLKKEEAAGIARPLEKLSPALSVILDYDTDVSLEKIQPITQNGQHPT
D(1B) dopamine receptor (Homo sapiens), sequence (P21918 whole entry): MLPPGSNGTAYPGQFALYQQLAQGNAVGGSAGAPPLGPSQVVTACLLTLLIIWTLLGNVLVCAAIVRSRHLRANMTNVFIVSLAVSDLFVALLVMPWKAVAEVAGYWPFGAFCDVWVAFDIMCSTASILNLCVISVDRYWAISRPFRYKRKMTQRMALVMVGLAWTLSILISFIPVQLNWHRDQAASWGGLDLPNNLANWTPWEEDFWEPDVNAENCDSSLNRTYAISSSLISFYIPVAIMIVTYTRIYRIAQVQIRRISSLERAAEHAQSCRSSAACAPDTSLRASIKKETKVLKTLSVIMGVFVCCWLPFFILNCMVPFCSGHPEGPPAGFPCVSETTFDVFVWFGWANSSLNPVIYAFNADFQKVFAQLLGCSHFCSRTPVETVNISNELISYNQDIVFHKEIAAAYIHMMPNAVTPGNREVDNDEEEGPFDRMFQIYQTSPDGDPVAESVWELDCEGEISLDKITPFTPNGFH
T2 sequence (P28223 whole entry): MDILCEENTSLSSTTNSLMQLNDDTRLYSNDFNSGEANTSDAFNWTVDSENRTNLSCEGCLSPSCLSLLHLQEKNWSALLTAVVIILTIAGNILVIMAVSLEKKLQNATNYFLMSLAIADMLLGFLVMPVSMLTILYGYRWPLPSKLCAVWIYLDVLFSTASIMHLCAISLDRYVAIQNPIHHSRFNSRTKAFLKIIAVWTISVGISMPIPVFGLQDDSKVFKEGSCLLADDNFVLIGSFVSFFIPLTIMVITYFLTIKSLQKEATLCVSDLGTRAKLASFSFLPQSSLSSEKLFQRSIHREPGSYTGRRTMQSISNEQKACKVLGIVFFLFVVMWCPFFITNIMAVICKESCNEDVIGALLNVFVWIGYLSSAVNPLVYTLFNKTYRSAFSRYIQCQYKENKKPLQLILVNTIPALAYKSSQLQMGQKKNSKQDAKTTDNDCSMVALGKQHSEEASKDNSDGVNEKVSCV
T4 sequence (P14416 whole entry): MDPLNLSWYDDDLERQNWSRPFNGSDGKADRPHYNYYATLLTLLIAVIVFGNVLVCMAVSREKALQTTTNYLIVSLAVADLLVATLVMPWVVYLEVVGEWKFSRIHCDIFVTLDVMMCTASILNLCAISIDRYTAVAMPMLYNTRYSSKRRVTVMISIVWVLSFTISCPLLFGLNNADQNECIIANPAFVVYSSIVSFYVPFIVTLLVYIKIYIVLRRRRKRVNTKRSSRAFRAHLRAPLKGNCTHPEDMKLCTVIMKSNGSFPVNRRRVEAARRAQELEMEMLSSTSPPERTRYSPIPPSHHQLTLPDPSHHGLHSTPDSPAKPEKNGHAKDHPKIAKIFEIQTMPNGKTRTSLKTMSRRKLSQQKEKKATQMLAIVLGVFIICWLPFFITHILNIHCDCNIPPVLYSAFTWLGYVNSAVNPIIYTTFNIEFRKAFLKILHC

Compound | Ki [1] | Ki [2] | Ki (D(1A) dopamine receptor [3]) | Ki (D(2) dopamine receptor [4]) | inhibition [5] | inhibition [6] | inhibition [7] | inhibition (D(1A) dopamine receptor [8]) | inhibition (D(2) dopamine receptor [9]) | Stability [10] | Stability [11] | Stability [12] | Stability [13] | Stability [14]
C#CCOc1c(OC)cc2c3c1-c1cc(N)ccc1CC3N(C)CC2 (stereo not drawn) | 428 nM | 378 nM | 709 nM | 431 nM | < 50% |  |  |  |  |  |  |  |  | 
COc1cc2c3c(c1O)-c1cc(N)ccc1CC3N(C)CC2 (stereo not drawn) |  | 850 nM | 301 nM |  |  | < 50% |  |  |  |  |  |  |  | 
COc1cc2c3c(c1OC)-c1cc(NC(C)=O)ccc1CC3N(C)CC2 (stereo not drawn) |  |  | 756 nM | 978 nM | < 50% | < 50% | < 50% |  |  |  |  |  |  | 
CC(=O)Nc1ccc2c(c1)-c1cccc3c1C(C2)N(C)CC3 (stereo not drawn) | 93 nM | 1060 nM |  |  | < 50% |  |  | < 50% | < 50% |  |  |  |  | 
C#CCOc1c(OC)cc2c3c1-c1cc(NC(C)=O)ccc1CC3N(C)CC2 (stereo not drawn) |  | 1270 nM | 58 nM | 854 nM | < 50% | < 50% |  |  |  | 100% | 99.76% | 97.8% | 95.6% | 102.69%
C#CCOc1c(OC)cc2c3c1-c1cc([N+](=O)[O-])ccc1CC3N(C)CC2 (stereo not drawn) | 206 nM |  | 536 nM | 2050 nM | < 50% |  | < 50% |  |  |  |  |  |  | 
C=CCOc1c(OC)cc2c3c1-c1cc(NC(C)=O)ccc1CC3N(C)CC2 (stereo not drawn) |  | 1220 nM | 155 nM |  | < 50% | < 50% |  |  | < 50% |  |  |  |  | 
COc1cc2c3c(c1OC1CC1)-c1cc([N+](=O)[O-])ccc1CC3N(C)CC2 (stereo not drawn) | 439 nM |  |  |  | < 50% |  | < 50% | < 50% | < 50% |  |  |  |  | 
COc1cc2c3c(c1O)-c1cc([N+](=O)[O-])ccc1CC3N(C)CC2 (stereo not drawn) | 548 nM | 908 nM | 316 nM | 320 nM | < 50% |  |  |  |  |  |  |  |  | 
COc1cc2c3c(c1OC1CC1)-c1cc(N)ccc1CC3N(C)CC2 (stereo not drawn) |  | 110 nM | 1110 nM | 963 nM | < 50% | < 50% |  |  |  |  |  |  |  | 
CC(C)[N+](C)(CCOC(=O)C1c2ccccc2Oc2ccccc21)C(C)C [PROPANTHELINE] |  |  |  |  |  |  |  |  |  | 100% | 65.33% | 36.32% | 6.4% | 0.16%
COc1cc2c3c(c1OC)-c1cc([N+](=O)[O-])ccc1CC3N(C)CC2 (stereo not drawn) | 458 nM | 1350 nM | 726 nM | 478 nM | < 50% |  |  |  |  |  |  |  |  | 
COc1cc2c3c(c1OC)-c1cc(N)ccc1CC3N(C)CC2 (stereo not drawn) | 156 nM | 585 nM | 691 nM | 260 nM | < 50% |  |  |  |  |  |  |  |  | 
CCCC(=O)Nc1ccc2c(c1)-c1cccc3c1C(C2)N(C)CC3 (stereo not drawn) | 83 nM |  |  |  | < 50% |  | < 50% | < 50% | < 50% |  |  |  |  | 
CN1CCc2cccc3c2C1Cc1ccc([N+](=O)[O-])cc1-3 (stereo not drawn) | 100 nM |  | 928 nM |  | < 50% |  | < 50% |  | < 50% |  |  |  |  | 
CN1CCc2cccc3c2[C@H]1Cc1ccc(O)c(O)c1-3 [APOMORPHINE] |  |  |  |  |  |  |  |  |  | 100% | 89.33% | 99.73% | 80.43% | 36.68%
C=CCOc1c(OC)cc2c3c1-c1cc(N)ccc1CC3N(C)CC2 (stereo not drawn) |  | 234 nM | 830 nM | 759 nM | < 50% | < 50% |  |  |  |  |  |  |  | 
O=[N+]([O-])c1ccc2c(c1)-c1cccc3c1C(C2)NCC3 (stereo not drawn) | 350 nM |  |  |  | < 50% |  | < 50% | < 50% | < 50% |  |  |  |  | 
C=CCOc1c(OC)cc2c3c1-c1cc([N+](=O)[O-])ccc1CC3N(C)CC2 (stereo not drawn) | 1680 nM |  |  |  | < 50% |  | < 50% | < 50% | < 50% |  |  |  |  | 
CN1CCc2cccc3c2C1Cc1ccc(N)cc1-3 (stereo not drawn) | 269 nM | 672 nM |  | 679 nM | < 50% |  |  | < 50% |  |  |  |  |  | 
